Reference: US8637544B2, “Neurite formation promoter” (Senju Pharmaceutical Co., Ltd., priority 2007, dated 2014)

Key:
[1] = system: cultured rabbit trigeminal nerve cells; experiment: Promoting effect on neuritogenesis in cultured rabbit trigeminal nerve cells, concentration series (Test Example 3); assay type: cell-based; conditions: for Ratio (%) of neuritogenesis cells: 48 h, mean±SD, control 30.4 ± 19.5
From the text: (§1) Japanese White rabbits (4 days old, male) purchased from Oriental Yeast Co., Ltd. were used.
Rabbit trigeminal nerve cells were isolated according to the report by Chan et al. (Kwan Y. Chan and Richard H. Haschke. Exp. Eye Res. 41: 687-699, 1985). Specifically, a rabbit underwent cardiac perfusion with physiological saline under anesthesia with pentobarbital sodium injection (Dainippon Sumitomo Pharma), after which the trigeminal ganglia were cut out. The trigeminal ganglia cut out were washed with Hanks' balanced salt solution (HBSS, Invitrogen), and thereafter treated with 300 μg/mL collagenase-dispase (Roche) at 37° C. for 40 minutes; centrifugation was performed at 120×g for 5 minutes, and the cells were collected. The enzyme reaction was stopped with Neurobasal (registered trademark, Invitrogen) supplemented with EDTA at a final concentration of 0.1%, and the cells were suspended in culture medium, after which centrifugation was performed at 120×g for 5 minutes, and trigeminal nerve cells were prepared.
The cells prepared were seeded in a 8-well chamber slide coated with polylysine/laminin (Falcon) at about 3×10^3 cells/well; after the seeding, the cells were cultured for 24 hours. After the 24 hours, each of Compound A (final concentration: 0.001 nM (0.00026 ng/mL), 0.1 nM (0.026 ng/ml), 10 nM (2.6 ng/mL), 1000 nM (260 ng/mL)) and NGF (final concentration 1 μg/ml) as a positive control or PBS as a control, was added to the culture medium. After the addition, the cells were further cultured for 48 hours.
The culture medium used was a Neurobasal containing the B27 supplement (Invitrogen) (final concentration 2% (v/v)), L-glutamine (Invitrogen) (final concentration 1 mM) and cytosine-1-β-D(+)arabinofuranoside (final concentration 10 μM). Culturing conditions were set at a carbon dioxide concentration of 5%, an air concentration of 95%, a humidity of 100%, and a temperature of 37° C.
(§2) After the 48 hours of cultivation, the rabbit trigeminal nerve cells were immersed and fixed in 10% neutrally buffered formaldehyde solution at room temperature for 20 minutes. The specimens fixed were fluorescently stained using the anti-neurofilament 200 antibody (Sigma-Aldrich), which specifically recognizes neurofilaments constituting nerve cell bodies and neurites, and the cells stained were examined under a fluorescence microscope (Olympus). Stained cells were incorporated as images from the fluorescence microscope into a computer.
To evaluate the degree of neuritogenesis in the cultured rabbit trigeminal nerve cells, cell body diameters and neurite lengths were measured on the computer-captured stained cell images using image analysis software (Image-Pro Plus Ver. 4.5.1, Media Cybernetics). Cells having a neurite with a length of not less than twice the diameter of the cell body were regarded as neuritogenesis cells, and the ratio (%) of the cells to the total cell count was calculated (Otori Y, Wei J Y, Barnstable C J. Invest. Opthalmol V is Sci (1998) 39, 972-981).

[2] = system: rabbit retinal nerve cells; experiment: Promoting effect on neuritogenesis in rabbit retinal cells (Test Example 2); assay type: cell-based; conditions: 0.1 nM (0.026 ng/mL), 48 h culture after addition; FIG. 2
Procedure: as §1
A rabbit underwent cardiac perfusion with physiological saline under anesthesia with pentobarbital sodium injection (Dainippon Sumitomo Pharma), after which the eyeballs were extirpated and the retinas were isolated. The retinas isolated were placed in a papain solution (1 mg/mL, Sigma-Aldrich Japan K.K.) suspended in Hanks' balanced salt solution (HBSS, Invitrogen), and subjected to enzymatic digestion at 37° C. for 30 minutes. Thereafter, Leibovitz's L-15 Medium (L-15, Invitrogen) was used to prepare reagents. After the suspension was allowed to stand, the supernatant was discarded, 3 mL of a trypsin inhibitor solution (2 mg/mL trypsin inhibitor, 0.004% DNase and 1 mg/mL Bovine Serum Albumin dissolved in L-15, pH 7.4) was added, and pipetting was performed. After the solution was allowed to stand, the supernatant was discarded, another 3 mL of the trypsin inhibitor solution was added, pipetting was performed, and this operation was once again repeated; centrifugation was performed at 120×g for 5 minutes, and the supernatant was removed. […]

[3] = system: corneal sensitivity after corneal flap creation; experiment: Improving effect on rabbit corneal hyposensitivity after corneal flap creation (Test Example 4); assay type: in vivo; conditions: 1 nM ophthalmic solution, instillation 50 μL four times a day for 6 weeks
Procedure: Japanese White rabbits weighing 2.5 to 3.0 kg purchased from KITAYAMA LABES were used. From arrival to the day of test completion, the animals were kept in a breeding room set at a room temperature of 23±3° C., a humidity of 55±10%, and 12-hour lighting (lighted on at 8:00, lighted off at 20:00) at one animal per cage. Each animal was fed up to 100 to 120 g of a solid food (Labo R Stock, Nosan Corporation) a day, and had free access to tap water.
Compound A was used as a test substance. The test substance was dissolved in the base shown below to obtain a concentration of 1 nM (0.00000026%) to yield an ophthalmic solution. For a control group, the following base, free of the test substance, was administered by instillation.
3. Test Procedures 1) Grouping
On the day before flap creation, the animals were macroscopically examined for the ocular surface and examined for fluorescein-stained spots in the cornea; rabbits with no abnormalities observed therein were selected, and initial values of corneal sensitivity were measured using the Cochet-Bonnet aesthesiometer (manufactured by Luneau). […]
One week, 2 weeks, 4 weeks or 6 weeks after surgery, corneal sensitivity was measured using the Cochet-Bonnet aesthesiometer. […]

[4] = system: cultured rabbit trigeminal nerve cells; experiment: Promoting effect on neuritogenesis in cultured rabbit trigeminal nerve cells (Test Example 1); assay type: cell-based; conditions: 0.1 nM (0.026 ng/mL), 48 h culture after addition; mean±SD, N=5; control 29.5±8.7%
From the text: as §1
N-(1-acetylpiperidin-4-yl)-4-fluorobenzamide (hereinafter referred to as Compound A) was used.
Rabbit trigeminal nerve cells were isolated according to the report of Chan et al. (Kwan Y. Chan and Richard H. Haschke. Exp. Eye Res. 41: 687-699, 1985). Specifically, a rabbit underwent cardiac perfusion with physiological saline under anesthesia with pentobarbital sodium injection (Dainippon Sumitomo Pharma), after which the trigeminal ganglia thereof were cut out. […]
as §2, with “of cultivation following the addition,” for “of cultivation,”, “Stained cell” for “Stained cells”
To evaluate the degree of neuritogenesis in the cultured rabbit trigeminal nerve cells, cell body diameters and neurite lengths were measured on the computer-captured stained cell images using image analysis software (Image-Pro Plus Ver. 4.5.1, Media Cybernetics). […]

CC(=O)N1CCC(NC(=O)c2ccc(F)cc2)CC1 [Compound A, N-(1-acetylpiperidin-4-yl)-4-fluorobenzamide]
Ratio (%) of neuritogenesis cells ([1]; 0.001 nM): 33.6 ± 16.3%
Ratio (%) of neuritogenesis cells ([1]; 0.1 nM, *p<0.05 vs control): 45.9 ± 15.1* %
Ratio (%) of neuritogenesis cells ([1]; 10 nM): 37.2 ± 16.5%
Ratio (%) of neuritogenesis cells ([1]; 1000 nM): 37.0 ± 20.0%
optimum concentration for promoting effect on neuritogenesis in trigeminal nerve cells ([1]; tested at 0.001, 0.1, 10, 1000 nM): 0.1 nM
neuritogenesis in retinal nerve cells stained with anti-neurofilament antibody [2]: Remarkable neuritogenesis was observed
time when a sense was observed for the first time after corneal flap creation (first measured value of 5 mm filament length or more) ([3]; average, vehicle group 5.5 weeks): 4.1 weeks
recovery from decreased corneal sensitivity after flap creation (Cochet-Bonnet aesthesiometer) ([3]; versus vehicle instillation group, FIG. 3): accelerated recovery from decreased corneal sensitivity after flap creation
ratio of neuritogenesis cells to all cells [4]: 63.3±5.2%
